Measurements published in patent US7842817B2, “2-amino benzimidazole derivatives and their use as modulators of small-conductance calcium-activated potassium channels” (Neurosearch A/S, priority 2005, dated 2010).
Structures can show the parent of a compound that is named as a salt.

melting point	SMILES
185 to 187 °C	N=c1n(Cc2ccc(Cl)cc2)c2ccccc2n1Cc1ccc(Cl)cc1 [Example 1, 1,3-Bis(4-chlorobenzyl)-1,3-dihydrobenzoimidazol-2-ylideneamine]
259 to 260 °C	N=c1n(Cc2ccc(F)c(F)c2)c2ccccc2n1-c1ccc(F)c(F)c1 (as salt: hydrobromid) [Example 13, 1-(3,4-Difluorobenzyl)-3-(3,4-difluorophenyl)-1,3-dihydrobenzoimidazol-2-ylideneamine]
114 to 117 °C	N=c1n(Cc2ccc(F)c(F)c2)c2ccccc2n1Cc1ccc(F)c(F)c1 [Example 4, 1,3-Bis(3,4-difluorobenzyl)-1,3-dihydrobenzoimidazol-2-ylideneamine]
167 to 170 °C	Fc1ccc(Cn2c(Nc3ccc(C(F)(F)F)cc3)nc3ccccc32)cc1F [Example 7, N-[1-(3,4-Difluorobenzyl)benzimidazol-2-yl]-4-trifluoromethylaniline]
115 to 117 °C	Fc1ccc(Nc2nc3ccccc3n2-c2ccc(F)c(F)c2)cc1F [Example 20, (3,4-Difluorophenyl)-[1-(3,4-difluorophenyl)-1H-benzoimidazol-2-yl]amine]
158 to 161 °C	Fc1ccc(CNc2nc3ccccc3n2Cc2ccc(Cl)c(C(F)(F)F)c2)cc1F [Example 9, N-[1-(4-Chloro-3-trifluoromethylbenzyl)benzimidazol-2-yl]-3,4-difluorobenzylamine]
144 to 145 °C	N=c1n(Cc2cc(F)cc(F)c2)c2ccccc2n1Cc1cc(F)cc(F)c1 [Example 12, 1,3-Bis(3,5-difluorobenzyl)-1,3-dihydrobenzoimidazol-2-ylideneamine]
158.5 to 159.5 °C	Fc1ccc(CNc2nc3ccccc3n2-c2ccc(F)c(F)c2)cc1F [Example 19, (3,4-Difluorobenzyl)-[1-(3,4-difluorophenyl)-1H-benzoimidazol-2-yl]amine]
175 to 177 °C	N=c1n(Cc2cccc(C(F)(F)F)c2)c2ccccc2n1Cc1cccc(C(F)(F)F)c1 [Example 16, 1,3-Bis[3-(trifluoromethyl)benzyl]-1,3-dihydrobenzoimidazol-2-ylideneamine]
145 to 146 °C	N=c1n(Cc2ccc(Cl)c(Cl)c2)c2ccccc2n1Cc1ccc(Cl)c(Cl)c1 [Example 2, 1,3-Bis(3,4-dichlorobenzyl)-1,3-dihydrobenzoimidazol-2-ylideneamine]
88 to 92 °C	FC(F)(F)c1cc(Cn2c(Nc3ccc(Cl)c(C(F)(F)F)c3)nc3ccccc32)ccc1Cl [Example 8, N-[1-(4-Chloro-3-trifluoromethylbenzyl)benzimidazol-2-yl]-4-chloro-3-trifluoromethylaniline]
88 to 89.5 °C	N=c1n(Cc2ccc(F)c(F)c2)c2ccc(Br)cc2n1Cc1ccc(F)c(F)c1 [Example 17, 1,3-Bis(3,4-difluorobenzyl)-5-bromo-1,3-dihydrobenzoimidazol-2-ylideneamine]
236 to 238 °C	Fc1ccc(Cn2c(Nc3ccc(F)c(F)c3)nc3ccccc32)cc1F (as salt: hydrochloride) [Example 5, N-[1-(3,4-Difluorobenzyl)benzimidazol-2-yl]-3,4-difluoroaniline]
> 166 °C (dec.)	N=c1n(Cc2ccc(F)c(F)c2)c2ccc(F)cc2n1Cc1ccc(F)c(F)c1 [Example 15, 1,3-Bis(3,4-difluorobenzyl)-5-fluoro-1,3-dihydrobenzoimidazol-2-ylideneamine]
148 to 150 °C	N=c1n(Cc2ccc(F)cc2)c2ccccc2n1Cc1ccc(F)cc1 [Example 3, 1,3-Bis(4-fluorobenzyl)-1,3-dihydrobenzoimidazol-2-ylideneamine]
